Patent US11052154B2, “Ras protein degradation inducing molecule and pharmaceutical composition” (Tokyo University of Science Foundation, priority 2016, dated 2021)

Key:
[1] = biological target: T1, G12D mutant K-Ras protein (Homo sapiens, UniProt P01116, G12D); assay: Degradation (knockdown) of G12D mutant K-Ras protein forcibly expressed in HeLa cells, Western blot analysis; format: cell-based; details: FIG. 4
T1 construct: expressed in transfected cells; host or cells: HeLa
Procedure: In Example 5, degradation (knockdown) of the G12D mutant K-Ras protein forcibly expressed in HeLa cells through TUS-007 was evaluated by Western blot analysis.
A plasmid expressing the G12D mutant K-Ras protein (K-Ras-G12D) was prepared, as in Example 4.
As in Example 4, the plasmid was introduced into HeLa cells to transiently overexpress a G12D mutant K-Ras protein or a DsRed protein for comparison in the cells. HeLa cells into which the plasmid had been introduced were seeded in a 24-well plate at a cell density of 4×10^4 cells/well, and then cultured under conditions of 37° C. and 5 vol % CO2 for 40 hours.
TUS-007 was added to HeLa cells as in Example 4. Furthermore, in addition to an experiment group in which a DMSO solution containing TUS-007 had been added, an experiment group in which a DMSO solution containing Ras-SOS-NH2 had been added was prepared. DMSO was used as a control.
As in Example 3, degradation of a G12D mutant K-Ras protein through TUS-007 was evaluated by Western blot analysis.

[2] = biological target: T2, endogenous wild-type K-Ras protein (Mus musculus, UniProt P32883); assay: Degradation of endogenous wild-type K-Ras protein in mouse pancreas and colorectal tissue, Western blot analysis; format: in vivo; details: C57BL/6J mice, intraperitoneal, 48 hours, FIG. 8
T2 construct: an endogenous wild-type K-Ras protein and wild-type H-Ras protein; from tissue; host or cells: mouse pancreas and colon
Procedure: In Example 9, in a mouse individual to which TUS-007 had been administered, the degradation (knockdown) of an endogenous wild-type K-Ras protein and wild-type H-Ras protein was evaluated by Western blot analysis.
TUS-007 was dissolved in DMSO, and then dissolved in corn oil so that the concentration of DMSO was 10 vol %, and then intraperitoneally administered to C57BL/6J wild-type mice (8 to 9 weeks old, male) (CLEA Japan, Inc.) in an amount of 40 mg/kg body weight or 80 mg/kg body weight (n=3 to 4). Furthermore, in addition to a group in which TUS-007 was administered, a group in which Ras-SOS had been administered in a dose of 80 mg/kg body weight was prepared. As a control, an injection carrier (corn oil containing 10 vol % DMSO) was used. The mice were kept under an environment of ad libitum access to food and water. The mice were dissected under deep anesthesia 48 hours after administration. The pancreas and colon were excised, and flash frozen in liquid nitrogen.
The frozen pancreas and colon were each triturated, and then TKM tissue lysis buffer (50 mM triethanolamine (pH 7.8), 50 mM KCl, 5 mM MgCl2, 0.25 M sucrose, 1 mM PMSF, Protein Inhibitors Cocktail-EDTA free (Nacalai Tesque, Inc.), 1 mM DTT, and a recombinant RNase inhibitor (0.2 U/μL, Takara Bio) were added, and subjected to centrifugation (at 13800 rpm×30 minutes, 4° C.), and the supernatants (pancreatic tissue extract and colorectal tissue extract) were collected. The concentration of the extracted proteins was quantified with a spectrophotometer.
Each tissue extract collected was subjected to Western blot analysis. […]
After electrophoresis, proteins were transferred to a PVDF membrane (Immobion™-P, Millipore) under conditions of 200 mA and 90 minutes using a tank-type blotting device and a transfer buffer (25 mM Tris-HCl, 195 mM glycine, 0.01% SDS, 15% methanol). […] Subsequently, the membrane was treated with a chemiluminescence reagent Immobilon™ Western (Millipore), and then chemiluminescence was detected using a lumino image analyzer LAS-3000 (FUJIFILM Corporation).

SW1990 cells = assay: Anti-tumor effect in mice subcutaneously implanted with human pancreatic cancer cells (SW1990 cells); format: in vivo, mouse; details: BALB/c nu/nu mice, SW1990 subcutaneous, oral 80 mg/kg once every 3 days, 7 doses, vs Vehicle; FIG. 9A
Procedure: In Example 10, TUS-007 was administered to mice subcutaneously implanted with human pancreatic cancer cells (SW1990 cells), and an anti-tumor effect was evaluated.
To the subcutis of T-cell deficient mice (BALB/cAJcl-nu/nu, 4 weeks old, female) (CLEA Japan, Inc.), 0.1 mL of cell suspension in which SW1990 cells were suspended in PBS so as to be 1×10^7 cells/mL was implanted using a 26-gauge injection needle (TERUMO CORPORATION).
Immediately before administration, TUS-007 was dissolved in DMSO, 0.5 mass % carboxymethyl cellulose (Code No. 039-01335, Wako Pure Chemical Industries, Ltd.) solution was added so that the concentration of DMSO became 2.5 vol %, followed by pulverization by ultrasonic treatment to prepare a suspension of TUS-007. When the tumors of mice with subcutaneously implanted SW1990 cells grew to a size of approximately 100 mm^3, the prepared TUS-007 suspension was orally administered by gavage with a gastric tube (Code No. 5202K, Fuchigami Kikai) at a dose of 80 mg/kg body weight once every 3 days for a total of 7 doses (n=6 to 9). As a control (Vehicle), 0.5 mass % carboxymethyl cellulose solution containing 2.5 vol % DMSO was administered in the same manner.
The tumor volume (mm^3) was calculated by measuring the tumor size using a caliper, and using the formula (minor axis diameter)^2×major axis diameter/2.

T2 sequence (P32883 whole entry): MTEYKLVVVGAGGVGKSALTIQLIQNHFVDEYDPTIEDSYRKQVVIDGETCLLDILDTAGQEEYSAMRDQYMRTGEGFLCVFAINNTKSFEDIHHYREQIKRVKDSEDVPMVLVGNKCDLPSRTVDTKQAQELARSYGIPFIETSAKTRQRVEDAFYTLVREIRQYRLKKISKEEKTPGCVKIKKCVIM

CCC(C)[C@H](NC(=O)CCCCCCNC(=O)[C@H](CC(C)C)NC(=O)CNC(=O)c1cc(Cl)ccc1Cl)C(=O)Nc1ccc2[nH]c(Cc3c[nH]c4ccccc34)nc2c1 (stereo in doubt) [TUS-007]
amount of the G12D mutant K-Ras protein (Western blot) [1]: the amount of the G12D mutant K-Ras protein was reduced in a concentration-dependent manner
amount of the endogenous wild-type K-Ras protein in the pancreatic tissue (Western blot) ([2]; 40 or 80 mg/kg, pancreatic tissue): remarkably reduced in the pancreatic tissue
amount of the endogenous wild-type K-Ras protein in mouse tissues (Western blot) ([2]; TUS-007 40 or 80 mg/kg, Ras-SOS 80 mg/kg, pancreas and colon): reduced in a concentration-dependent manner
increase of the tumor volume (SW1990 cells): the increase of the tumor volume was significantly suppressed (p=0.004)
